Test results: ChEMBL document CHEMBL1127211, “Biselectrostatic interaction with DNA as potential anti-turmor agents: novel 2,11-diamino-5,8-dithiaundecane derivatives” (1993)
Values after ≈ are worked out from the molar mass of the structure shown.

Legend:
Format in all cases: functional
Settings in all cases: Homo sapiens, read-out: LD50 (the source's name)
COLO 205 = experiment: Tested for its in vitro cytotoxicity against COLO-205 cells
HEp-2 = experiment: Tested for its in vitro cytotoxicity against HEP-2 cells
HeLa = experiment: Tested for its in vitro cytotoxicity against Hela cells
[1] = Tested for its in vitro cytotoxicity against KB cells

## NCCCSCC(COc1ccc(-c2ccccc2)cc1)SCCCN (stereo unspecified)
COLO 205
  CC50: 1.05 µg/mL (≈ 2.69 µM)
HEp-2
  CC50: 1.45 µg/mL (≈ 3.71 µM)
HeLa
  CC50: 0.68 µg/mL (≈ 1.74 µM)
[1]
  CC50: 0.92 µg/mL (≈ 2.36 µM)

## NCCCSCC(COc1cccc(-c2ccccc2)c1)SCCCN (stereo unspecified)
COLO 205
  CC50: 1.41 µg/mL (≈ 3.61 µM)
HEp-2
  CC50: 1.36 µg/mL (≈ 3.48 µM)
HeLa
  CC50: 1.2 µg/mL (≈ 3.07 µM)
[1]
  CC50: 1.55 µg/mL (≈ 3.97 µM)

## NCCCSCC(COc1ccc(NC(=O)c2cc(-c3ccccc3)nc3ccccc23)cc1)SCCCN (stereo unspecified)
COLO 205
  CC50: 5.2 µg/mL (≈ 9.27 µM)
HEp-2
  CC50: 1.92 µg/mL (≈ 3.42 µM)
HeLa
  CC50: 6.18 µg/mL (≈ 11 µM)
